Measurements published in PMC10523091, “Stereo/regio-selective access to substituted 3-hydroxy-oxindoles with anti-proliferative assessment and in silico validation” (RSC Advances, 2023).
Where two headings read alike, the source gives them in different places.

Key:
[1] = test system: HCT116; assay: MTS cell viability assay, HCT116; type: cell-based; conditions: for SI HCT116: SI = (IC50 for normal cell line FHC)/(IC50 for HCT116)
Method: (§1) The newly synthesized compounds were subjected to assessment for their potential to inhibit the proliferation of various cancer cell lines including colorectal carcinoma (HCT116), ovarian cancer (OVCAR 10), and human metastatic melanoma (1205Lu), and non-cancerous fetal human cells (FHC). […] In order to ascertain whether compound 4j is selectively cytotoxic or anti-proliferative to cancer cells, it was tested for non-cancerous fetal human cells (FHC).
(§2) HCT116, OVCAR 10, 1205Lu, and FHC cell lines were procured from American Type Culture Collection (ATCC, Manassas, VA, USA). All the cells were grown based on the recommendations by ATCC at 37 °C in a humidified atmosphere with CO2. Stock solutions of compounds were made up and delivered to cells in DMSO.
(§3) The cell viability assay was performed as described earlier[27] HCT116, OVCAR 10, 1205Lu, and FHC adherent cell lines were seeded in 96-well plate at a density of 5 × 10^3 cells per well. Next day, the cells were treated with the respective compounds at different doses for 48 h in triplicates. At the end of the treatment duration, the media were removed and fresh media were added containing 20 μL of [3-(4,5-dimethylthiazol-2-yl)-5-(3-carboxymethoxyphenyl)-2-(4-sulfophenyl)-2H-tetrazolium] (MTS) reagent per well (Promega, WI, USA). The optical densities of the solubilized formazan crystals were read with a 96-well multi-scanner (Dynex Technologies, MRX Revelation; Chantilly, VA, USA) at 490 nm and 630 nm, and the normalized percent viability was calculated. The IC50 values were calculated using non-linear regression (curve fit).

[2] = test system: FHC; assay: MTS cell viability assay, non-cancerous FHC; type: cell-based; conditions: 48 h treatment, non-cancerous fetal human cells, read-out: IC50 (μM) ± SD FHC
Method: as §1, §2, §3

[3] = test system: 1205Lu; assay: MTS cell viability assay, 1205Lu; type: cell-based, human; conditions: for SI 1205Lu: SI = (IC50 for normal cell line FHC)/(IC50 for 1205Lu)
Method: as §1, §2, §3

[4] = test system: OVCAR 10; assay: MTS cell viability assay, OVCAR 10; type: cell-based; conditions: for SI OVCAR10: SI = (IC50 for normal cell line FHC)/(IC50 for OVCAR10)
Method: as §1, §2, §3

[5] = test system: HCT-116 cells; assay: Annexin V/7-AAD apoptosis assay; type: cell-based; conditions: 10 μM
Method: (§4) We further carried out apoptosis experiments utilizing the caspase-3/7 7-AAD and Annexin V/7-AAD assays to evaluate the mode of cell death.
(§5) The apoptosis assay using Muse Annexin V/7-AAD and Caspase 3/7 7-AAD assay kit (EMD Millipore, Darmstadt, Germany) was performed following manufacturer's protocol as described earlier.[28] Briefly, the cells were seeded in 6-well plate at a density of 1 × 10^5 cells per well. After 24 h incubation, the cells were treated with 10 μM of compound 4j. The cells were incubated for 24 and 48 h. At the end of the treatment period, the cells were harvested using enzyme free cell dissociation buffer. The samples were treated with the respective dyes based on the manufacturer's protocol. The samples were further analysed in Muse Cell Analyzer (Merck Millipore, Darmstadt, Germany).

[6] = test system: HCT-116 cells; assay: Caspase 3/7 7-AAD apoptosis assay; type: cell-based; conditions: 10 μM
Method: as §4, §5

[7] = MTS assay, 48 h treatment, ovarian cancer, read-out: IC50 (μM) ± SD OVCAR 10
[8] = Homo sapiens, HCT-116, MTS assay, 48 h treatment, colorectal carcinoma, read-out: IC50 (μM) ± SD HCT116
[9] = 1205Lu, MTS assay, 48 h treatment, human metastatic melanoma, read-out: IC50 (μM) ± SD 1205Lu
[10] = Homo sapiens, HCT-116, repeated in docking table, unit inferred, read-out: IC50 HCT116
[11] = Homo sapiens, 1205Lu, repeated in docking table, unit inferred, read-out: IC50 1205Lu
[12] = repeated in docking table, unit inferred, read-out: IC50 OVCAR10

N.N.[Cl][Pt][Cl] [Cisplatin, cisplatin, reference compound]
IC50 ([1]; MTS assay, 48 h treatment, colorectal carcinoma, read-out: IC50 (μM) ± SD HCT116): 12.1 ± 2.5 µM
SI HCT116 [1]: 2.07
IC50 [2]: 25.1 ± 3.2 µM
IC50 ([3]; MTS assay, 48 h treatment, human metastatic melanoma, read-out: IC50 (μM) ± SD 1205Lu): 19 ± 1.5 µM
SI 1205Lu [3]: 1.3
IC50 [4, 7]: 18.2 ± 2.5 µM
SI OVCAR10 [4]: 1.37

O=C1N(Cc2ccccc2)c2ccccc2C1(O)CN1CCOCC1 (stereo not shown) [Compound 4a, 1-Benzyl-3-hydroxy-3-(morpholinomethyl)indolin-2-one]
IC50 [1, 8]: 104 ± 25 µM
IC50 ([2]; FHC): 122 ± 13.2 µM
IC50 [3, 9]: 111 ± 18.9 µM
IC50 [4, 7]: 120 ± 15.4 µM

O=C1N(Cc2ccccc2)c2ccccc2C1(O)CN1CCCCC1 (stereo not shown) [Compound 4b, 1-Benzyl-3-hydroxy-3-(piperidin-1-ylmethyl)indolin-2-one]
IC50 [1, 8]: 85.2 ± 15.3 µM
IC50 ([2]; FHC): 63.5 ± 22.2 µM
IC50 [3, 9]: 65.3 ± 15.3 µM
IC50 [4, 7]: 69.2 ± 16.2 µM

O=C1N(Cc2ccccc2)c2ccccc2C1(O)CN1CCCC1 (stereo not shown) [Compound 4c, 1-Benzyl-3-hydroxy-3-(pyrrolidin-1-ylmethyl)indolin-2-one]
IC50 [1, 8]: 65.9 ± 16.7 µM
IC50 ([2]; FHC): 76.3 ± 14.5 µM
IC50 [3, 9]: 78.2 ± 24 µM
IC50 [4, 7]: 61.2 ± 13.2 µM
melting point: 169 to 171 °C

O=C1N(Cc2ccccc2)c2ccc(Br)cc2C1(O)CN1CCOCC1 (stereo not shown) [Compound 4d, 1-Benzyl-5-bromo-3-hydroxy-3-(morpholinomethyl)indolin-2-one]
IC50 [1, 8]: 84.1 ± 19.4 µM
IC50 ([2]; FHC): 73.2 ± 19.6 µM
IC50 [3, 9]: 81.2 ± 15.1 µM
IC50 [4, 7]: 87.9 ± 13 µM

O=C1N(Cc2ccccc2)c2ccc(Br)cc2C1(O)CN1CCCCC1 (stereo not shown) [Compound 4e, 1-Benzyl-5-bromo-3-hydroxy-3-(piperidin-1-ylmethyl)indolin-2-one]
IC50 [1, 8]: 92.2 ± 17.2 µM
IC50 ([2]; FHC): 88.3 ± 16.9 µM
IC50 [3, 9]: 98 ± 13.2 µM
IC50 [4, 7]: 93.1 ± 15.6 µM
melting point: 189 to 191 °C

O=C1N(Cc2ccccc2)c2ccc(Br)cc2C1(O)CN1CCCC1 (stereo not shown) [Compound 4f, 1-Benzyl-5-bromo-3-hydroxy-3-(pyrrolidin-1-ylmethyl)indolin-2-one]
IC50 [1, 8]: 85.3 ± 16 µM
IC50 ([2]; FHC): 81.3 ± 15.6 µM
IC50 [3, 9]: 85.6 ± 13.2 µM
IC50 [4, 7]: 88.5 ± 18.9 µM
melting point: 144 to 146 °C

O=C1N(Cc2ccccc2)c2ccc(Cl)cc2C1(O)CN1CCOCC1 (stereo not shown) [Compound 4g, 1-Benzyl-5-chloro-3-hydroxy-3-(morpholinomethyl)indolin-2-one]
IC50 [1, 8]: 121 ± 17.1 µM
IC50 ([2]; FHC): 121 ± 21.2 µM
IC50 [3, 9]: 125 ± 19.8 µM
IC50 [4, 7]: 112 ± 11.7 µM
melting point: 191 to 193 °C

O=C1N(Cc2ccccc2)c2ccc(Cl)cc2C1(O)CN1CCCCC1 (stereo not shown) [Compound 4h]
IC50 [1, 8]: 117 ± 19.6 µM
IC50 ([2]; FHC): 106 ± 17.2 µM
IC50 [3, 9]: 110 ± 18.4 µM
IC50 [4, 7]: 130 ± 17.2 µM

O=C1N(Cc2ccccc2)c2ccc(Cl)cc2C1(O)CN1CCCC1 (stereo not shown) [Compound 4i, 1-Benzyl-5-chloro-3-hydroxy-3-(pyrrolidin-1-ylmethyl)indolin-2-one]
IC50 [1, 8]: 93.4 ± 19.3 µM
IC50 ([2]; FHC): 96.5 ± 22.2 µM
IC50 [3, 9]: 96.4 ± 18.8 µM
IC50 [4, 7]: 81.5 ± 12.5 µM
melting point: 121 to 124 °C

O=C1N(Cc2ccccc2)c2c(Br)cc(Br)cc2C1(O)CN1CCOCC1 (stereo not shown) [Compound 4j, 1-Benzyl-5,7-dibromo-3-hydroxy-3-(morpholinomethyl)indolin-2-one]
apoptotic cells, Annexin V/7-AAD ([5]; 24 h): 19.5%
apoptotic cells, Annexin V/7-AAD ([5]; 48 h): 46.15%
IC50 [1, 8]: 9.63 ± 1.3 µM
IC50 [1, 10]: 9.63 µM
SI HCT116 [1]: 2.12
IC50 ([2]; FHC): 20.6 ± 3.1 µM
apoptotic cell population, Caspase 3/7 7-AAD ([6]; 24 h): 21.5%
apoptotic cell population, Caspase 3/7 7-AAD ([6]; 48 h): 57.9%
IC50 [3, 9]: 12.2 ± 1.7 µM
IC50 [3, 11]: 12.2 µM
SI 1205Lu [3]: 1.68
IC50 [4, 7]: 8.56 ± 1.1 µM
SI OVCAR10 [4]: 2.40
IC50 [4, 12]: 8.56 µM

O=C1N(Cc2ccccc2)c2c(Br)cc(Br)cc2C1(O)CN1CCCCC1 (stereo not shown) [Compound 4k, 1-Benzyl-5,7-dibromo-3-hydroxy-3-(piperidin-1ylmethyl)indolin-2-one]
IC50 [1, 8]: 110 ± 24.4 µM
IC50 [1, 10]: 110 µM
IC50 ([2]; FHC): 88.6 ± 20.3 µM
IC50 [3, 9]: 89.9 ± 16.8 µM
IC50 [3, 11]: 89.9 µM
IC50 [4, 7]: 91.2 ± 18.7 µM
IC50 [4, 12]: 91.2 µM
melting point: 170 to 172 °C

O=C1N(Cc2ccccc2)c2c(Br)cc(Br)cc2C1(O)CN1CCCC1 (stereo not shown) [Compound 4l]
IC50 [1, 8]: 91.5 ± 26.9 µM
IC50 ([2]; FHC): 94.8 ± 15.3 µM
IC50 [3, 9]: 91.6 ± 18.3 µM
IC50 [4, 7]: 94.3 ± 18 µM

O=C1Nc2ccccc2C1(O)CN1CCOCC1 (stereo not shown) [Compound 4m, 3-Hydroxy-3-(morpholinomethyl)indolin-2-one]
IC50 [1, 8]: 95.4 ± 9.66 µM
IC50 ([2]; FHC): 89.4 ± 14.6 µM
IC50 [3, 9]: 99.7 ± 11.5 µM
IC50 [4, 7]: 92.3 ± 18.2 µM

O=C1Nc2ccccc2C1(O)CN1CCCCC1 (stereo not shown) [Compound 4n, 3-Hydroxy-3-(piperidin-1-ylmethyl)indolin-2-one]
IC50 [1, 8]: 105 ± 23.3 µM
IC50 ([2]; FHC): 96.8 ± 18.5 µM
IC50 [3, 9]: 109 ± 24.7 µM
IC50 [4, 7]: 112 ± 21.3 µM
melting point: 154 to 156 °C

O=C1Nc2ccccc2C1(O)CN1CCCC1 (stereo not shown) [Compound 4o, 3-Hydroxy-3-(pyrrolidin-1-ylmethyl)indolin-2-one]
IC50 [1, 8]: 102 ± 18.7 µM
IC50 ([2]; FHC): 95.7 ± 13 µM
IC50 [3, 9]: 130 ± 14 µM
IC50 [4, 7]: 116 ± 11.8 µM

O=c1[nH]cc(F)c(=O)[nH]1 [Compound 5-FU, 5-fluorouracil, reference compound]
IC50 [1, 8]: 22.3 ± 1.7 µM
IC50 [1, 10]: 22.3 µM
SI HCT116 [1]: 0.95
IC50 ([2]; FHC): 21.3 ± 4.2 µM
IC50 [3, 9]: 15.4 ± 2.9 µM
IC50 [3, 11]: 15.4 µM
SI 1205Lu [3]: 1.38
IC50 [4, 7]: 22.4 ± 4.1 µM
SI OVCAR10 [4]: 0.95
IC50 [4, 12]: 22.4 µM
